Data: paper PMC11926788, “Effect of SSR504734, a Selective Glycine Transporter Type 1 Inhibitor, on Seizure Thresholds, Neurotransmitter Levels, and Inflammatory Markers in Mice” (ACS Chemical Neuroscience, 2025)
Counter-ions that a name gives are not always drawn. Like-named read-outs stand apart in the source and are kept apart here.

Assay: Pharmacokinetic study of SSR504734 in mice (serum and tissue concentrations by LC-MS/MS, noncompartmental analysis)
Assay type: in vivo
Procedure: SSR504734 was administered i.p. at the dose of 30 mg/kg, and mice were sacrificed by decapitation at 5, 15, 30, 60, 120, 240, and 480 min after dosing. The trunk blood samples (∼1 mL) were collected in polypropylene tubes and allowed to clot at room temperature. Subsequently, the blood was centrifuged at 5600 rpm for 10 min. Serum samples were collected in new tubes. Immediately after decapitation, brains and other tissues such as the liver, lungs, kidneys, heart, spleen, gut, and adipose were removed from the skull and washed with cold 0.9% NaCl. Samples were kept at −80 °C until the day of analysis.
Serum and tissue concentrations of SSR504734 in mice were quantified by a liquid chromatography tandem mass spectrometry (LC-MS/MS) method. Stock solutions of the studied compound were prepared in methanol at a concentration of 1 mg/mL. Working solutions were prepared by dilution of the standard solutions in acetonitrile/water 1:1 (v/v). Tissue homogenates were obtained by homogenization of each tissue in distilled water at a ratio of 1:4 (w/v) using a basic T10 ULTRA-TURRAX tissue homogenizer (IKA, Poland). Mouse serum and tissues, which were used to prepare standard samples and quality control (QC) samples, were harvested from untreated healthy animals after exsanguination. Standard and QC samples were prepared by adding 5 μL of working solutions of SSR504734 to 45 μL of mouse serum or 45 μL of tissue homogenates. Real serum and homogenate samples, QC samples, and standard samples were subjected to the same precipitation procedure. Briefly, 150 μL of 0.1% formic acid solution in acetonitrile containing pentoxifylline (PTX) as an internal standard (IS) at a concentration of 5 ng/mL was added to 50 μL of analyzed serum, homogenate, standard samples, or QC samples in Eppendorf tubes and mixed on a vortex mixer for 10 min (IKA Vibrax VXR, Germany). Subsequently, samples were centrifuged at 10,000 rpm for 10 min at room temperature (Eppendorf miniSpin centrifuge). 2 μL of supernatant was subjected to LC-MS/MS analysis using an Exion LC AC HPLC system coupled to a SCIEX QTRAP 4500 triple-quadrupole mass spectrometer (Danaher Corporation, Framingham, MA, US). Chromatographic separation was performed using a Hypersil Gold C18 analytical column (2.1 × 50 mm, 3 μm) (Thermo Scientific, USA) at 25 °C. The mobile phase consisting of water containing 0.1% formic acid and acetonitrile containing 0.1% formic acid (60:40, v/v) was pumped at a flow rate of 0.5 mL/min in an isocratic elution mode. All detections were performed in positive ion mode. The selected reaction monitoring (SRM) for the transitions was m/z 397.2 → 207.0 and m/z 397.2 → 174.2 (quantifier and qualifier) for SSR504734 and m/z 279 → 181 for IS. The optimal MS parameters for SSR504734 multiple reaction monitoring (MRM) transitions selected by continuous infusion of the standard solution at the rate of 7 μL/min using a Harvard infusion pump were as follows: the declustering potential was 120 V, the collision energy was 35.6 V, the entrance potential was 10 V, and the cell exit potential was 6 V. These parameters for IS were 60, 24, 10, and 6 V, respectively. An additional tuning optimization of gas flows and temperatures was performed by flow injection analysis. The ion source temperature was maintained at 450 °C, the ion spray voltage at 4000 V, the curtain gas (CUR) was set at 25 psi, the nebulizer (GS1) and TIS (GS2) gases at 40.0 and 50.0 psi, respectively, and the collision gas (CAD) at Medium.
Data acquisition and processing were carried out using Analyst 1.7 software. The calibration curves were constructed by plotting the ratio of the peak area of the analyte to the peak area of the IS vs the concentration of the analyte and generated by weighted (1/y) nonlinear regression analysis by fitting a quadratic formula. […]

[1] = mouse, ip, adipose, single 30 mg/kg i.p.
[2] = mouse, ip, brain, single 30 mg/kg i.p.
[3] = mouse, ip, gut, single 30 mg/kg i.p.
[4] = mouse, ip, heart, single 30 mg/kg i.p.
[5] = mouse, ip, kidneys, single 30 mg/kg i.p.
[6] = mouse, ip, liver, single 30 mg/kg i.p.
[7] = mouse, ip, lungs, single 30 mg/kg i.p.
[8] = mouse, ip, serum, single 30 mg/kg i.p.
[9] = mouse, ip, spleen, single 30 mg/kg i.p.

O=C(NC(c1ccccc1)C1CCCCN1)c1cccc(C(F)(F)F)c1Cl [SSR504734, 2-chloro-N-[(S)-phenyl[(2S)-piperidin-2-yl]methyl]-3-trifluoromethyl benzamide monohydrochloride]
AUClast (adipose, single 30 mg/kg i.p.): 3347.89 µg·min/mL (g tissue)
AUClast (brain, single 30 mg/kg i.p.): 1137.50 µg·min/mL (g tissue)
Kp (tissue-to-serum partition coefficient, AUClast(tissue)/AUClast(serum)) (brain, single 30 mg/kg i.p., 30 mg/kg): 3.05
AUClast (gut, single 30 mg/kg i.p.): 10606.43 µg·min/mL (g tissue)
AUClast (heart, single 30 mg/kg i.p.): 4841.83 µg·min/mL (g tissue)
AUClast (kidneys, single 30 mg/kg i.p.): 16781.00 µg·min/mL (g tissue)
AUClast (liver, single 30 mg/kg i.p.): 8821.36 µg·min/mL (g tissue)
AUClast (lungs, single 30 mg/kg i.p.): 33485.57 µg·min/mL (g tissue)
Kp (mouse, adipose (relative to serum), ip, 30 mg/kg, adipose, single 30 mg/kg i.p., read-out: Kp (tissue-to-serum partition coefficient)): 8.98
Kp (mouse, brain (relative to serum), ip, 30 mg/kg, brain, single 30 mg/kg i.p., read-out: Kp (tissue-to-serum partition coefficient, AUClast(tissue)/AUClast(serum))): > 3
Kp (mouse, gut (relative to serum), ip, 30 mg/kg, gut, single 30 mg/kg i.p., read-out: Kp (tissue-to-serum partition coefficient)): 28.5
Kp (mouse, heart (relative to serum), ip, 30 mg/kg, heart, single 30 mg/kg i.p., read-out: Kp (tissue-to-serum partition coefficient)): 13
Cmax (mouse, ip, 30 mg/kg i.p., assuming brain tissue density of ∼1 g/mL, read-out: Cmax in the brain tissue): 5150 ng/mL
MRT [1]: 1.37 h
Tmax [1]: 5 min
half-life [1]: 79.6 min
Cmax (mouse, ip, adipose, single 30 mg/kg i.p., read-out: Cmax): 65700 ng/g
MRT [2]: 2.36 h
Tmax [2]: 30 min
half-life [2]: 105 min
Cmax (mouse, ip, brain, single 30 mg/kg i.p., read-out: Cmax): 5150 ng/g
CL/F (mouse, ip, from serum vs time profile, 30 mg/kg i.p., read-out: apparent clearance (CL/F)): 77.8 mL/min/kg
Vd/F (mouse, ip, from serum vs time profile, 30 mg/kg i.p., read-out: volume of distribution during the terminal phase (Vz/F)): 11.1 L/kg
MRT [3]: 1.96 h
Tmax [3]: 5 min
half-life [3]: 104 min
Cmax (mouse, ip, gut, single 30 mg/kg i.p., read-out: Cmax): 77900 ng/g
MRT [4]: 1.68 h
Tmax [4]: 15 min
half-life [4]: 78.7 min
Cmax (mouse, ip, heart, single 30 mg/kg i.p., read-out: Cmax): 38300 ng/g
MRT [5]: 2.03 h
Tmax [5]: 30 min
half-life [5]: 84.1 min
Cmax (mouse, ip, kidneys, single 30 mg/kg i.p., read-out: Cmax): 93500 ng/g
MRT [6]: 1.76 h
Tmax [6]: 5 min
half-life [6]: 91.3 min
Cmax (mouse, ip, liver, single 30 mg/kg i.p., read-out: Cmax): 101000 ng/g
MRT [7]: 2.6 h
Tmax [7]: 15 min
half-life [7]: 122 min
Cmax (mouse, ip, lungs, single 30 mg/kg i.p., read-out: Cmax): 147000 ng/g
MRT [8]: 1.86 h
Tmax [8]: 15 min
half-life [8]: 99.2 min
Cmax (mouse, ip, serum, single 30 mg/kg i.p., read-out: Cmax): 3000 ng/mL
MRT [9]: 1.66 h
Tmax [9]: 15 min
half-life [9]: 96 min
Cmax (mouse, ip, spleen, single 30 mg/kg i.p., read-out: Cmax): 193000 ng/g
Kp (mouse, kidneys (relative to serum), ip, 30 mg/kg, kidneys, single 30 mg/kg i.p., read-out: Kp (tissue-to-serum partition coefficient)): 45
Kp (mouse, liver (relative to serum), ip, 30 mg/kg, liver, single 30 mg/kg i.p., read-out: Kp (tissue-to-serum partition coefficient)): 23.7
Kp (mouse, lungs (relative to serum), ip, 30 mg/kg, lungs, single 30 mg/kg i.p., read-out: Kp (tissue-to-serum partition coefficient)): 89.8
Kp (mouse, spleen (relative to serum), ip, 30 mg/kg, spleen, single 30 mg/kg i.p., read-out: Kp (tissue-to-serum partition coefficient)): 50
AUClast (serum, single 30 mg/kg i.p.): 372.73 µg·min/mL (g tissue)
AUClast (spleen, single 30 mg/kg i.p.): 18616.26 µg·min/mL (g tissue)
